Reference: patent publication US5877212A (priority 1997, dated 1999)
Where two headings read alike, the source gives them in different places.

Tests used:
[1] = water; cited from earlier work
[2] = type: physicochemical
[3] = in vivo
[4] = in vivo, pH 4.8
[5] = set-up: species or system human; settings: in vivo

| Compound | pK1 (pKa) [1] | other results |
| --- | --- | --- |
| O=C(O)C(O)CO (racemic) [DL-Glyceric acid, 2,3-dihydroxypropanoic acid] | 3.64 |  |
| CCC(O)C(=O)O (centres unmarked) [2-Hydroxybutanoic acid] | 3.65 |  |
| O=C(O)C(O)CCl (centres unmarked) [3-Chlorolactic acid] | 3.12 |  |
| CC(O)(C(=O)O)c1ccccc1 (centres unmarked) [Atrolactic acid, 2-phenyl 2-methyl 2-hydroxyethanoic acid] | 3.53 |  |
| O=C(O)C(O)C(O)C(O)C(O)CO [D-Gluconic acid, 2,3,4,5,6-pentahydroxyhexanoic acid] | 3.86 |  |
| O=C(O)C(O)C(O)C(O)C(O)C(=O)O (centres unmarked) [Glucaric acid, 2,3,4,5-tetrahydroxyhexane-1,6-dioic acid] | 5.00 |  |
| O=C(O)CO [Glycolic acid, 2-hydroxyethanoic acid] |  | anion content (glycolate) ([2]; pH 3.2): 2%; free acid content ([2]; pH 3.2): 8%; anion content (glycolate) ([2]; pH 3.83): 5%; free acid content ([2]; pH 3.83): 5% |
| C[C@H](O)CC(=O)O [L-3-Hydroxybutanoic acid] | 4.41 |  |
| C[C@H](O)C(=O)O [L-Lactic acid, 2-hydroxypropanoic acid] |  | anion content (lactate) ([2]; pH 3.86): 5%; free acid content ([2]; pH 3.86): 5% |
| O=C(O)CC(O)C(=O)O (centres unmarked) [Malic acid, 2-hydroxybutane-1,4-dioic acid] | 3.46 | pK2 [1]: 5.10 |
| O=C(O)C(O)c1ccccc1 (centres unmarked) [Mandelic acid, 2-phenyl 2-hydroxyethanoic acid] | 3.41 |  |
| CC(C)(O)C(=O)O [Methyllactic acid, 2-methyl 2-hydroxypropanoic acid] | 3.72 |  |
| CC(=O)C(=O)O [Pyruvic acid, 2-ketopropanoic acid] | 2.49 |  |
| O=C(O)C(O)C(=O)O [Tartronic acid, 2-hydroxypropane-1,3-dioic acid] | 2.37 | pK2 [1]: 4.74 |
| O=C(O)C(CO)c1ccccc1 (centres unmarked) [Tropic acid, 2-phenyl-3-hydroxypropanoic acid] | 3.53 |  |
| Oc1ccc(O)cc1 [hydroquinone] |  | improvement of pigmented and non-pigmented spots and patches [3]: improved very slightly |
| CC(O)C(=O)O (centres unmarked) [lactic acid, 2-hydroxypropanoic acid] |  | anion content (lactate) ([2]; pH 4.5): 8%; free acid content ([2]; pH 4.5): 2%; skin irritation [4]: can still irritate sensitive skin or atopic skin |
| O=C(O)c1ccccc1O [salicylic acid] |  | improvement of acne lesions [5]: improved slightly |
